According to PMC4965148 (PLoS ONE, 2016):
Values joined by “and” are separate entries in the source; they are usually repeats but may differ in a detail not shown here. Identical values can stand only once. Like-named read-outs stand apart in the source and are kept apart here.

What was measured:
HEK293/Human 5-HT3A = target: T1, HEK293/Human 5-HT3A (Homo sapiens, UniProt P46098); experiment: Ca2+ flux (FLIPR) 5-HT3A antagonist assay; format: cell-based
T1 construct: expressed in transfected cells; host or cells: HEK293 (made by Bristol-Myers Squibb)
T1 sequence (P46098 24-478): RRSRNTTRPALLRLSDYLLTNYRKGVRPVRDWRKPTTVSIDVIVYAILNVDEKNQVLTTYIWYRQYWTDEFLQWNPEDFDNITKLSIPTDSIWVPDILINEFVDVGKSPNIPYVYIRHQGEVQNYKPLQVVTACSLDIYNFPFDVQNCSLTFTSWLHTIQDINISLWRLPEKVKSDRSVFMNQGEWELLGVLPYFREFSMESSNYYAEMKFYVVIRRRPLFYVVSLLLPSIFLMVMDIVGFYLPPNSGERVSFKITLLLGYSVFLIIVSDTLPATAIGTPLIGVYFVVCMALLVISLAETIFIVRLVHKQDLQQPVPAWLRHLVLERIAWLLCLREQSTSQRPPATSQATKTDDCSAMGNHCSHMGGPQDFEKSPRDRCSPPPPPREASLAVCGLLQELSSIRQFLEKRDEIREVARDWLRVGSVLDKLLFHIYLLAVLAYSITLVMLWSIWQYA
Experimental: Functional activity was examined using Ca^2+-sensitive, dye-based, microfluorometric assays read on the FLIPR Tetra plate reader platform (Molecular Devices, CA, USA). Cells were plated in 384-well black, clear-bottomed Greiner poly-D-lysine coated plates at a density of ~25 K cells/well and incubated at 29°C for 48 h. Prior to assay, media contents were removed and cells incubated in assay buffer containing 5μM final Fluo-4 dye for 90 min. For nAChR assays, the dye-loading buffer was HBSS (#14175 Life Technologies) supplemented with 20 mM HEPES, 0.5 mM CaCl2, 1 mM MgCl2 and 10 μM atropine (final concentration). Test compounds were solubilized in DMSO and serially diluted in NUNC 384-well plates prior to addition of assay buffer (5.3 mM KCl + 140 mM NaCl + 20 mM Hepes + 25 mM CaCl2 + 1 mM MgCl2 + 10 μM atropine final concentration). Compounds diluted in assay buffer were added to the assay plate by the FLIPR and read for approximately 2 min. […] For 5-HT3A antagonist studies, the dye loading and compound diluent buffer was HBSS (#14025 Life Technologies) supplemented with 20 mM HEPES (final concentration) and the concentration of 5-HT used in the assay was 2 μM. Offline transformation of concentration response data was done using a 4 parameter logistic fit using a Bristol-Myers Squibb proprietary informatics software suite.

MK-801 treated mice = experiment: Mouse MK-801 two trial Y maze; format: in vivo
Experimental: Testing was conducted in a grey polyethylene plastic Y maze that had 3 arms, 2 of 40 cm length (test arms) and 1 of 20 cm length (start arm). Each arm had distinct optical cues covering the walls and a removable partition to occlude the arm as needed. The test consisted of a forced choice trial followed by a free-choice trial. For the forced choice trial the start arm and one test arm was open with access to the 2nd test arm blocked by the partition. Individual subjects were placed in the start arm and allowed to explore the open test arm for 8 min after which they were removed from the maze, placed in a holding cage and the maze was cleaned. Animals were then immediately placed back on the Y maze for the free choice trial and allowed to explore both open test arms for 4 min. The protocol was thus designed for minimal delay between the forced choice and free choice trials. […] For each subject the % time exploring the novel arm during the free choice trial was calculated using the formula: % novel time = novel time/(novel + familiar time) x 100.

α7 nAChR [1] = target: T2, α7 nAChR (Mus musculus, UniProt P49582); experiment: Ex vivo α7 nAChR occupancy ([3H]-A-585539); format: in vivo
T2 construct: One forebrain hemisphere from each animal was thawed and homogenized in assay buffer; from tissue; host or cells: forebrain homogenate of dosed male C57Bl/6 mice
Experimental: Occupancy determinations were made either on completion of behavioral testing or in satellite groups of animals dosed in parallel with behavioral testing. At specified time points after dosing, the forebrain (for occupancy), the remaining hindbrain (for brain drug exposure) and plasma were collected, frozen in chilled isopentane and stored at -80°C until assayed. […] Homogenized tissue aliquots were frozen immediately and stored at -80°C. […] The filters were washed with ice-cold assay buffer, punched into a clear plate and 200 μl scintillation fluid added per well. Bound radioactivity was measured using a Wallac Microbeta liquid scintillation counter. Specific binding was calculated by subtracting the value of the non-specific binding from that of the total binding in each sample. The percent occupancy was calculated as [1 –(specific binding in drug treated mice/specific binding in vehicle treated mice)] x 100.

α7 nAChR [2] = target: T3, α7 nAChR (Rattus norvegicus, UniProt Q05941); experiment: Ex vivo α7 nAChR occupancy ([3H]-A-585539); format: in vivo; details: for receptor occupancy at 10 mg/kg: rat
T3 construct: One forebrain hemisphere from each animal was thawed and homogenized in assay buffer; from tissue; host or cells: forebrain homogenate of dosed male Sprague Dawley rats

Adrenergic α2C = Adrenergic α2C (Homo sapiens, UniProt P18825); experiment: Selectivity panel, binding
Androgen receptor = Androgen receptor (Rattus norvegicus, UniProt P15207); experiment: Selectivity panel, binding
CB1 = CB1 (Homo sapiens, UniProt P21554); experiment: Selectivity panel, binding; details: read-out: % inhibition @ 10 µM
[3] = target: Norepinephrine transporter (Homo sapiens, UniProt P23975); experiment: Selectivity panel, binding
PDE3 = experiment: Selectivity panel, enzyme; format: biochemical; details: Human
PDE4 = experiment: Selectivity panel, enzyme; format: biochemical; details: Human
5-HT1A = 5-HT1A (Homo sapiens, UniProt P08908); experiment: Selectivity panel, binding; details: read-out: % inhibition @ 10 µM
5-HT2A = 5-HT2A (Homo sapiens, UniProt P28223); experiment: Selectivity panel, functional; format: cell-based
Sequence of 5-HT2A (P28223 whole entry): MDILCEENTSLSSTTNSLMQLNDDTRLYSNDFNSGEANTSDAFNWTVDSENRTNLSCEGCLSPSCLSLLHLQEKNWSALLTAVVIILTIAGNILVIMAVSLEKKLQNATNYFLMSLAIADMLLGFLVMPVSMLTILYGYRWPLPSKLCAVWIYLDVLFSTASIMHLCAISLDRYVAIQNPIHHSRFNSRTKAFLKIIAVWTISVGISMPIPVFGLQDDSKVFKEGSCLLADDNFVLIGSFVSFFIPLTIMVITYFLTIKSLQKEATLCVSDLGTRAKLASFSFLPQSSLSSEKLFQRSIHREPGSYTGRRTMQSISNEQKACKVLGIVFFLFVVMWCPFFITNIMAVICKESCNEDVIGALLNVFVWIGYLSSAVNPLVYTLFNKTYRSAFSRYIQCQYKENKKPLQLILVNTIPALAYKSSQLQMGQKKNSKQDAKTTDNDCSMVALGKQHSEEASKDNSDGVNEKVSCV

T3 sequence (Q05941 23-502): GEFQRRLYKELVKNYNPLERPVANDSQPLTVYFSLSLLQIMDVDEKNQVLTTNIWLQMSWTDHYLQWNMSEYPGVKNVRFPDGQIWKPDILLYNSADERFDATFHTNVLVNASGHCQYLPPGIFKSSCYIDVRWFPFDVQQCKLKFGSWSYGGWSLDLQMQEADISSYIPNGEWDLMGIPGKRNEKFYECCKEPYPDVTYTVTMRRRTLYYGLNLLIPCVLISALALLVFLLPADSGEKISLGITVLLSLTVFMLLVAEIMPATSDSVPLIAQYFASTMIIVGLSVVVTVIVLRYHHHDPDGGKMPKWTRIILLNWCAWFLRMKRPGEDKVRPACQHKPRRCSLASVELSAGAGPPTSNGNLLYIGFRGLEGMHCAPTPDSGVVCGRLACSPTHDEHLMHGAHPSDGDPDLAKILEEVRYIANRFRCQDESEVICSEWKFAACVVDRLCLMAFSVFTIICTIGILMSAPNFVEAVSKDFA
T2 sequence (P49582 23-502): as the sequence (Q05941 23-502) above, with A402T counted along it
Sequence of Adrenergic α2C (P18825 whole entry): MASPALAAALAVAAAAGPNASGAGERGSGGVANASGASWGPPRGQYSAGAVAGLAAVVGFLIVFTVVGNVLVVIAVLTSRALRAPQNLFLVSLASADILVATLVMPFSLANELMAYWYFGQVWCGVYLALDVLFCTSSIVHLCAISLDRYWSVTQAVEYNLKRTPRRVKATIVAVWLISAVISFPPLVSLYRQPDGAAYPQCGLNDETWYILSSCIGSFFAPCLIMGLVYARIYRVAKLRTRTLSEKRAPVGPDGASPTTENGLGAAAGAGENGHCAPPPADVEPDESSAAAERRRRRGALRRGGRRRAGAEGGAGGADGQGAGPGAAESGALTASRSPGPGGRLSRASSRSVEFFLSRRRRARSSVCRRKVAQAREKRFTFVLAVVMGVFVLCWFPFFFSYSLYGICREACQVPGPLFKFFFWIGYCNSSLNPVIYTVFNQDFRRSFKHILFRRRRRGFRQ
Sequence of 5-HT1A (P08908 whole entry): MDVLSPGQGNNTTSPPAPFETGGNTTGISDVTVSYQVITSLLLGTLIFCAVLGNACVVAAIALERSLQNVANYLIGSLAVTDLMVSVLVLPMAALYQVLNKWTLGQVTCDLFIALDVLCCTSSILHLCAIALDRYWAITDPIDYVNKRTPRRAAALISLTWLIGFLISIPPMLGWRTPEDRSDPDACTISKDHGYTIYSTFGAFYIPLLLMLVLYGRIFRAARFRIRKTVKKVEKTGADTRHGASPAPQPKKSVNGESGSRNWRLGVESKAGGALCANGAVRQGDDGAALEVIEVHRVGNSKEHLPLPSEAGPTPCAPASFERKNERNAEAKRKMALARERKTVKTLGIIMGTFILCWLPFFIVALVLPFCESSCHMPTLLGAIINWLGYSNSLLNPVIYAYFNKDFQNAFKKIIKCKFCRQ
Sequence of CB1 (P21554 whole entry): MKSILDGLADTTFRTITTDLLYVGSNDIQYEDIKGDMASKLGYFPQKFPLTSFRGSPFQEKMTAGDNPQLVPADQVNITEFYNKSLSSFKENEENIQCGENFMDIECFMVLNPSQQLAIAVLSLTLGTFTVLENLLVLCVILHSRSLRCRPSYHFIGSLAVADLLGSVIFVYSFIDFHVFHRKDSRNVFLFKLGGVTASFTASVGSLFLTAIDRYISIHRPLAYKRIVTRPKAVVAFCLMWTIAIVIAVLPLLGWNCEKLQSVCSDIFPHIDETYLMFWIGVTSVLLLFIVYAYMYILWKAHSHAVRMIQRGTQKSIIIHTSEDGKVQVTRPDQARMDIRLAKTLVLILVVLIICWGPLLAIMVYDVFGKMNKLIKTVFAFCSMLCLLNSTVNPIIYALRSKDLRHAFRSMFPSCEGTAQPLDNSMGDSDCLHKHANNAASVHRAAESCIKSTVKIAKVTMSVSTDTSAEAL
Sequence of Norepinephrine transporter (P23975 whole entry): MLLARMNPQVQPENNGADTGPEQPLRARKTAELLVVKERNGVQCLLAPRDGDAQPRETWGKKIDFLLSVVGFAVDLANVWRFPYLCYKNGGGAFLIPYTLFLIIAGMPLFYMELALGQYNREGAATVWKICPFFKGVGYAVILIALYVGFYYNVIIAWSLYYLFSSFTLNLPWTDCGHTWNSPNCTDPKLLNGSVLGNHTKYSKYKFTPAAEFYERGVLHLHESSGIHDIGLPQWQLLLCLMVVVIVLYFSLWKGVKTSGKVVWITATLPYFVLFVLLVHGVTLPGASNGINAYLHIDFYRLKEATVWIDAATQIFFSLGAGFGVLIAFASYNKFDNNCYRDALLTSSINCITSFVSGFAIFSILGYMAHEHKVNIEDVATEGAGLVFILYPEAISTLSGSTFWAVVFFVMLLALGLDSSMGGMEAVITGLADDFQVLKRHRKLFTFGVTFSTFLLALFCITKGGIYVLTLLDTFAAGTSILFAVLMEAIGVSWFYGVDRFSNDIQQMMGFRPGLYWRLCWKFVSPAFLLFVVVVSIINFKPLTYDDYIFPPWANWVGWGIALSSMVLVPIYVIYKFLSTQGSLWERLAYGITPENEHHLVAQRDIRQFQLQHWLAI
Sequence of Androgen receptor (P15207 whole entry S389L): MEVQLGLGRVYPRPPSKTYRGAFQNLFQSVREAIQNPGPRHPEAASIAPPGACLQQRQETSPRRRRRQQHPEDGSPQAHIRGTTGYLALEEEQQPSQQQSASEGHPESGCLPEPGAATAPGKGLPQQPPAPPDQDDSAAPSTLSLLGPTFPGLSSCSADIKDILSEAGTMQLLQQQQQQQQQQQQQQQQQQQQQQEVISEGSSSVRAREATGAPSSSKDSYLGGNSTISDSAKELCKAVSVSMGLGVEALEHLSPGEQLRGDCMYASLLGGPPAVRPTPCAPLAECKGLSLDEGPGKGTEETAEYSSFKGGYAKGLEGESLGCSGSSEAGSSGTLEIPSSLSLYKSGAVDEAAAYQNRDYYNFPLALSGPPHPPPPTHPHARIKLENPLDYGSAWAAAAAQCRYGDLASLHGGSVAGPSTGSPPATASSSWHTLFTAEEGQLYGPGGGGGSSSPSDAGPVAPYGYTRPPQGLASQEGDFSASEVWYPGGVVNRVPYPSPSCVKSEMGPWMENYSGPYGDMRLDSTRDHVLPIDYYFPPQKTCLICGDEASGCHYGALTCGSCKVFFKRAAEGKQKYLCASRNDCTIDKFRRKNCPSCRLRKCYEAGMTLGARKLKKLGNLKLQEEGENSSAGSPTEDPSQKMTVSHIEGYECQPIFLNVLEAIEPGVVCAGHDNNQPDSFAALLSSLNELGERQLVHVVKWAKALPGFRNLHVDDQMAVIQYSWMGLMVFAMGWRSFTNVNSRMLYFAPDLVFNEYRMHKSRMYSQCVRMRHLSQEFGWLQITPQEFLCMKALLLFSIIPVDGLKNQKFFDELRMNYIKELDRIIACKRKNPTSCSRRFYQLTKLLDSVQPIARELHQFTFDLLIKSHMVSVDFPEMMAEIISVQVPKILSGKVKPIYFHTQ

In the case of `c1cn(-c2cc(NC3=NC[C@@]4(CN5CCC4CC5)O3)ncn2)cn1` [BMS-933043, (2R)-N-(6-(1H-imidazol-1-yl)-4-pyrimidinyl)-4'H-spiro[4-azabicyclo[2.2.2]octane-2,5'-[1,3]oxazol]-2'-amine], the IC50 (HEK293/Human 5-HT3A; HEK293/Human 5-HT3A Mean ± SD IC50, Ca2+ flux (FLIPR), antagonism of 2 μM 5-HT) is reported as 8.07 µM, the IC50 (HEK293/Human 5-HT3A; Human 5-HT3A IC50 values (individual), FLIPR, individual determinations) is reported as 10.5 µM and 7.2 µM and 8.02 µM and 6.88 µM and 7.28 µM and 4.89 µM and 12.4 µM and 5.32 µM and 8.67 µM and 9.42 µM and the “time spent in the novel arm in MK-801-treated mice” value (MK-801 treated mice; doses of 1, 3 and 10 mg/kg sc) is reported as “significantly increased time spent in the novel arm”. The “Active dose range, MK-801 Y maze” value (MK-801 treated mice; sc) was 1–10 (sc) mg/kg, the EC50 (α7 nAChR [1]) was 1.9 µM and the “% ex vivo α7 nAChR occupancy” value (α7 nAChR [1]; 0.3 mg/kg sc, 30 min, individual mice) was 11.2% and -5.2% and 7.5% and -6.3%. The “% ex vivo α7 nAChR occupancy” value (α7 nAChR [1]; 1 mg/kg sc, 30 min) was 18.3% and 25.5% and 25.4% and ~ 20%, the “% ex vivo α7 nAChR occupancy” value (α7 nAChR [1]; 3 mg/kg sc, 30 min, individual mice) was 56.2% and 44.9% and 45.1% and the “% ex vivo α7 nAChR occupancy” value (α7 nAChR [1]; 10 mg/kg sc, 30 min) was 76.4% and 74.8% and 75.4% and > 75%. The “% ex vivo α7 nAChR occupancy” value (α7 nAChR [1]; 100 mg/kg sc, 30 min, individual mice) was 93.3% and 94.1% and 92.1%, the receptor occupancy at 1 mg/kg (α7 nAChR [1]; mouse, sc, read-out: % ex vivo α7 nAChR occupancy, 1 mg/kg sc, 30 min) was 23.9% and the receptor occupancy at 3 mg/kg (α7 nAChR [1]; mouse, sc, read-out: % ex vivo α7 nAChR occupancy, 3 mg/kg sc, 30 min, individual mice) was 41.3%. For the same compound, the receptor occupancy at 10 mg/kg (α7 nAChR [1]; mouse, sc, read-out: % ex vivo α7 nAChR occupancy, 10 mg/kg sc, 30 min) was 78.5%, the receptor occupancy at 100 mg/kg (α7 nAChR [1]; mouse, sc, read-out: % ex vivo α7 nAChR occupancy, 100 mg/kg sc, 30 min, individual mice) was 91.3% and the “% ex vivo α7 nAChR occupancy” value (α7 nAChR [2]; 3 mg/kg po, 90 min, individual rats) was 65% and 63% and 62% and 28%. The “% ex vivo α7 nAChR occupancy” value (α7 nAChR [2]; 10 mg/kg po, 90 min) was 83% and 78% and 77% and > 75%, the “% ex vivo α7 nAChR occupancy” value (α7 nAChR [2]; 30 mg/kg po, 90 min, individual rats) was 82% and 90% and 67% and 69% and the receptor occupancy at 10 mg/kg (α7 nAChR [2]; po, 10 mg/kg po, 90 min, read-out: % ex vivo α7 nAChR occupancy) was 80%. The receptor occupancy at 10 mg/kg (α7 nAChR [2]; rats, 10 mg/kg sc to 30 mg/kg po, read-out: ex vivo α7 nAChR occupancy at doses associated with a loss of efficacy) was no less than 80%, the EC50 (α7 nAChR [2]; rats, read-out: total plasma concentration achieving 50% ex vivo α7 nAChR occupancy) was 0.81 µM and the IC50 (Adrenergic α2C) was greater than 30 µM. For the same compound, the IC50 (Androgen receptor) was greater than 150 µM, the inhibition at 10 µM (CB1) was -5% and the IC50 [3] was greater than 30 µM. It also gave an IC50 (PDE3) greater than 30 µM, an IC50 (PDE4) greater than 30 µM and an inhibition at 10 µM (5-HT1A) of 9%. It also gave an EC50 (5-HT2A) greater than 10 µM.
